Assay results published in patent US8822182B2, “Chimeric antigen-specific T cell-activating polypeptides” (Mayo Foundation for Medical Education and Research, priority 2001, dated 2014).

How the values were obtained:
C57BL6 mice = type: in vivo, mouse; conditions: 40 μg immunogen in IFA plus CpG adjuvant; spleen cells restimulated 7 days with peptide epitope; RMA-S targets, FIGS. 11A-11C
[1] = test system: TAP deficient RMA-S targets; type: cell-based, mouse; conditions: ConA-activated CTL, 10 μM overnight
[2] = test system: TAP-competent cells expressing H-2K^b (L-K^b); test: Immunofluorescence and confocal microscopy of H-2K^b/OVA257 complexes, TAP-competent cells; type: cell-based, mouse; conditions: 25D1.16 staining
Method: (§1) T2/K^b or L-K^b cells were cultured overnight on poly-lysine treated glass coverslips. The culture medium was discarded, and the cells were gently washed with PBS. The cells were pre-incubated with serum-free AIM-V medium at 37° C. for 30 minutes and then incubated with peptide/TA solutions at the indicated concentrations for 12 hour at 37° C. After peptide loading, the cells were washed and fixed with 2% formaldehyde for 20 minutes at room temperature. For indirect immunofluorescence, fixed cell monolayers were permeabilized with 0.2% Triton X100 in PBS and incubated with PBS containing 5% goat serum to block non-specific protein binding sites. The cells were double-labeled with mouse monoclonal antibody 25D1.16 specific to OVA257/H-2K^b complex and rabbit polyclonal antibody TGN38 (TGN marker) or rabbit anti-calreticulin (ER marker), followed by 1 hour staining with FITC anti-mIgG and TR anti-rIgG as secondary antibodies. After washing, the coverslips were mounted for observation on glass slides using the Prolong Antifade Kit. The stained cells were examined and photographed with a Leica TCS-SL confocal laser-scanning microscope (Bensheim, Germany).
Utilizing the monoclonal antibody 25D1.16 that specifically reacts with H-2K^b/OVA257 complexes and confocal microscopy, the formation and presence of this CTL epitope in permeabilized TAP-competent and TAP-deficient cells expressing H-2K^b was evaluated. […] These cells were also stained with an antibody specific for calreticulin which is localized within the ER.

[3] = test system: TAP-deficient cells (T2/K^b); test: Immunofluorescence and confocal microscopy of H-2K^b/OVA257 complexes, T2/K^b cells; type: cell-based, human
Method: as §1
An antibody specific for trans-Golgi network (TGN38) was used to test whether H-2K^b/OVA257 complexes could also be detected in the trans-Golgi network of cells incubated with TA peptides. […] In these cells, antibody TGN38 stained brightly a structure corresponding to the trans-Golgi. […] These observations reinforce the findings that TA peptides need to penetrate cells in order to create MHC class I/peptide complexes. In addition, these complexes are observed in both the ER and trans-Golgi, even in TAP-deficient cells.

[4] = test system: TAP-deficient T2/K^b cells; test: Flow cytometry of surface H-2K^b/OVA257 complexes (25D1.16) with protease inhibitors, T2/K^b cells; type: cell-based, human; conditions: decRVKR-CMK 60 μM, antigen 10 μM overnight, FIGS. 8D-8F
Method: (§2) The effects of protease inhibitors on antigen processing and presentation were evaluated by analysis of 25D1.16 staining on different antigen-pulsed EL-4 or T2/K^b cells using flow cytometric analysis. In brief, EL-4 or T2/K^b cells were washed twice with serum-free AIM-V medium (Life Technologies, Rockville, Md.), pre-treated with protease inhibitors (10 μM lactacycstin, 100 μM pepstatin or 60 μM decRVKR-CMK) for 30 minutes and then pulsed with equimolar concentrations of different (as indicated) peptides at 37° C. overnight with the continuous presence of the corresponding protease inhibitors. The serum-free AIM-V medium was used in order to exclude the potential involvement of serum proteases during the peptide-pulsing process. After washing the cells twice with FACS buffer (PBS (phosphate buffered saline) supplemented with 2% FBS and 0.2% sodium azide), peptide-loaded APC were stained with 25D1.16 antibody followed by FITC anti-mIgG for flow analysis. Untreated EL-4 and T2/K^b cells were pulsed with peptides and stained as controls.
The data described above indicate that TA can be processed in various cellular compartments to produce small peptide epitopes that subsequently associate with MHC class I molecules and the resulting peptide-MHC class I complexes are then transported to the cell surface. Antigen processing could take place: (1) in the cytoplasm, via proteasomal degradation followed by TAP transport; (2) within the ER, where peptide trimming via an aminopeptidase could occur; (3) in the trans-Golgi, where processing of antigens through proteases such as furin can occur; and/or (4) in early endocytic compartments, where peptides that could either bind to recycling MHC class I molecules or leak into other compartments of the MHC class I pathway can be generated. Utilizing antibody 25D1.16, we studied the effects of various inhibitors of antigen processing in the formation of H-2K^b/OVA257 surface complexes by peptides OVA257-HIVtat and HIVtat-OVA257.

[5] = test system: Murine dendritic cells (DC); test: Persistence in dendritic cells: IFN-γ ELISA of OT-1 CTL cultured with pulsed DC; type: cell-based, mouse; conditions: DC pulsed 10 μM 2 hours, washed, further 48 hours, CTL:DC 10:1 for 24 hours, FIG. 14
Method: Murine dendritic cells (DC) were prepared by culturing C57BL6 mouse (H-2^b) bone marrow […] in the presence of granulocyte macrophage colony stimulating factor (GM-CSF) and interleukin-4 (IL-4) by a method essentially the same as that described by Son et al. [(2002) J. Immunol. Meth. 262:145-157] except that non-adherent cells are removed from the cultures and discarded on day 2 of culture and no density gradient centrifugation step was used. Cells not adhering to the plastic tissue culture vessel at day 6 of culture were harvested and used as DC.
DC were pulsed with either the TA HIVtat-OVA257 (see Table 2) or the peptide epitope OVA257, each at a concentration of 10 μM, for 2 hours at 37° C. The cells were then washed free of the TA or peptide epitope and incubated for a further 48 hours. They were then cultured with cells of the OT-1 CTL clone (specific for H-2K^b/OVA257) at a CTL to DC ratio of 10:1 for 24 hours. Supernatants were then removed from the cultures and the relative amounts of IFN-γ in various dilutions of each supernatant were measured by ELISA (FIG. 14). […] These findings indicate that a peptide epitope persists in DC for a longer period of time when taken up by DC in the form of a TA than when taken up by DC in the form of the peptide epitope per se.

RMA-S cells = test: Flow cytometry of surface H-2K^b/OVA257 complexes on RMA-S cells with or without furin inhibitor; type: cell-based; conditions: 18 hours, 25D1.16 antibody, FIG. 13
Method: Aliquots of RMA-S cells were cultured without or with the furin inhibitor decRVKR-CMK (60 μM) at 37° C. After one hour of culture, 4 multiple epitope-containing TA (TA3-A, TA3-B, TA3-C, and TA3-D) or OVA257 were each added to separate cultures, which were then incubated for a further 18 hours. The cells were then harvested and the relative amounts of H-2K^b/OVA257 complexes expressed on the surfaces of the cells were assessed by fluorescence flow cytometry using the 25D1.16 antibody (FIG. 13). […] These findings underscore the importance of furin in processing of antigens to generate peptide epitopes that bind to MHC class I molecules and are then recognized by appropriate peptide epitope-specific CTL.

TAP-competent EL-4 cells = test: Flow cytometry of surface H-2K^b/OVA257 complexes (25D1.16) with protease inhibitors, EL-4 cells; type: cell-based, mouse; conditions: decRVKR-CMK 60 μM, antigen 10 μM overnight, FIGS. 8A-8C
Method: as §2

Row | Sequence | induction of CTL responses by in vivo vaccination (C57BL6 mice) | sensitization of targets for killing by OVA257-specific CTL ([1]; FIG. 9 left panel) | sensitization of targets for killing by 2C-specific CTL ([1]; FIG. 9 middle panel) | presence of H-2K^b/OVA257 complexes in permeabilized cells [2] | location of H-2K^b/OVA257 complexes on the cell-surface ([3]; 25D1.16 staining) | localization of H-2K^b/OVA257 complexes to the trans-Golgi ([3]; 25D1.16 superimposed with TGN38 staining) | effect of furin inhibitor decRVKR-CMK on expression of surface H-2K^b/OVA257 complexes (decrease) [4] | IFN-γ produced by OT-1 CTL cultured with pulsed DC [5] | cell-surface H-2K^b/OVA257 complexes after exposure of cells (RMA-S cells) | effect of furin inhibitor decRVKR-CMK on expression of surface H-2K^b/OVA257 complexes (decrease) (TAP-competent EL-4 cells)
1 | IKAVYNFATCGRVKRSIYRYYGLRVKRSIINFEKLAAARKKRRQRRR [TA3-A] | at least as effective as the peptide mixture | could effectively kill targets sensitized | could effectively kill targets sensitized | – | – | – | – | – | – | –
2 | SIINFEKL [OVA257, reference compound] | – | – | – | abundant | most of the H-2K^b/OVA257 complexes were on the cell-surface | no localization to the trans-Golgi | no effect was observed | insignificant levels of IFN-γ | detectable levels | no effect was observed
